One data set deals with human MCH-1 receptor (Homo sapiens (Human), UniProt Q99705). The data set is described as follows: Binding Assay for Human Melanin-Concentrating Hormone (MCH-1) Receptor. The note with it: radioligand displacement, membranes from CHO-K1 cells expressing human MCH-1 receptor; Ki from IC50 by Cheng Prusoff equation; read-out: MCH1 Ki. A digest of the protocol:
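Membranes from CHO-K1 cells stably expressing human MCH-1 incubated 60 min at 25 °C with 1.4 nM tritiated indazolyl-pyridinone radioligand in 50 mM Tris-HCl pH 7.4. Bound counts by filtration and scintillation; IC50 and nH by Hill fit, Ki by Cheng–Prusoff.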
(Displacement assays read how much labelled ligand stays bound in the presence of the test substance.)

For orientation: melting point means the temperature, or range, at which the solid turns liquid. Usually Ki stands for the equilibrium dissociation constant of an inhibitor or competing ligand from its target.

Molecules are shown by their SMILES.

Sequence of human MCH-1 receptor (Q99705 whole entry): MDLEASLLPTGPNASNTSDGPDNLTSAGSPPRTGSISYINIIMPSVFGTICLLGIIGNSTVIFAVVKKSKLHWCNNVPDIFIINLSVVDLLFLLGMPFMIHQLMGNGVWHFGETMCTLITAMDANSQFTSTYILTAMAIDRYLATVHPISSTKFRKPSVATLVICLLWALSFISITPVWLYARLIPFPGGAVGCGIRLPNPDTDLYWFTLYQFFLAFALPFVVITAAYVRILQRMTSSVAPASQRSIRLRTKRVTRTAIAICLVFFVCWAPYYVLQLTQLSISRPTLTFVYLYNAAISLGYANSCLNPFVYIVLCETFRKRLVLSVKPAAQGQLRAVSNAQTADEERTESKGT

`Cl.Cn1c2c(c3ccc(-n4ccc(OCc5ncc(Cl)cc5Cl)cc4=O)cc31)CNCCC2` [Example 67, 4-((3,5-Dichloropyridin-2-yl)methoxy)-1-(6-methyl-1,2,3,4,5,6-hexahydroazepino[4,3-b]indol-8-yl)pyridin-2(1H)-one dihydrochloride]: the melting point was 251 to 256 °C. Also, at human MCH-1 receptor, the inhibition constant (Ki) is 0.022 µM.
On the same counts, the results for `Cl.Cn1c2c(c3ccc(-n4ccc(OCc5ccc(Cl)cc5F)cc4=O)cc31)CNCCC2` [Example 68, 4-(4-Chloro-2-fluorobenzyloxy)-1-(6-methyl-1,2,3,4,5,6-hexahydroazepino[4,3-b]indol-8-yl)pyridin-2(1H)-one hydrochloride] are 191 to 200 °C and 0.0082 µM.
Consider `Cl.Cn1c2c(c3ccc(-n4ccc(OCc5ccc(F)cn5)cc4=O)cc31)CN(C1CCC1)CCC2` [Example 72, 1-(2-Cyclobutyl-6-methyl-1,2,3,4,5,6-hexahydroazepino[4,3-b]indol-8-yl)-4-((5-fluoropyridin-2-yl)methoxy)pyridin-2(1H)-one hydrochloride], for which the melting point lay in the range of 260 to 265 °C. Moreover, on human MCH-1 receptor, the Ki came to 0.0075 µM.
For `CN1CCCc2c(c3ccc(N4CCN(CCc5ccc(F)cc5)CC4=O)cc3n2C)C1.Cl` [Example 74, 1-(2,6-Dimethyl-1,2,3,4,5,6-hexahydroazepino[4,3-b]indol-8-yl)-4-(4-fluorophenethyl)piperazin-2-one hydrochloride] the same measures were 211 to 220 °C and 0.01 µM.
On the same counts, the results for `Cl.Cn1c2c(c3ccc(N4CCN(CCc5ccc(F)cc5)CC4=O)cc31)CN(C1CCC1)CCC2` [Example 75, 1-(2-Cyclobutyl-6-methyl-1,2,3,4,5,6-hexahydroazepino[4,3-b]indol-8-yl)-4-(4-fluorophenethyl)piperazin-2-one hydrochloride] are 194 to 205 °C and 0.014 µM.
For `CCN1CCCc2c(c3ccc(N4CCN(CCc5ccc(F)cc5)CC4=O)cc3n2C)C1.Cl` [Example 76, 1-(2-Ethyl-6-methyl-1,2,3,4,5,6-hexahydroazepino[4,3-b]indol-8-yl)-4-(4-fluorophenethyl)piperazin-2-one hydrochloride] the same measures were 190 to 205 °C and 0.0098 µM.
On to `Cl.Cn1c2c(c3ccc(-n4ccc(OCc5ccccc5)cc4=O)nc31)CCNCC2` [Example 77, 4-(Benzyloxy)-1-(10-methyl-5,6,7,8,9,10-hexahydropyrido[3′,2′:4,5]pyrrolo[2,3-d]azepin-2-yl)pyridin-2(1H)-one hydrochloride], for which the melting point was 180 to 185 °C (dec.). On human MCH-1 receptor, the Ki was determined as 0.011 µM.
On the same counts, the results for `Cl.Cn1c2c(c3ccc(-n4ccc(-c5ccc(C(F)(F)F)nc5)cc4=O)nc31)CCNCC2` [Example 78, 1-(10-Methyl-5,6,7,8,9,10-hexahydropyrido[3′,2′:4,5]pyrrolo[2,3-d]azepin-2-yl)-4-(6-(trifluoromethyl)pyridin-3-yl)pyridin-2(1H)-one hydrochloride] are 320 to 325 °C (dec.) and 0.029 µM.
On the same counts, the results for `Cl.Cn1c2c(c3ccc(-n4ccc(-c5ccc(C(F)(F)F)nn5)cc4=O)nc31)CCNCC2` [Example 79, 1-(10-Methyl-5,6,7,8,9,10-hexahydropyrido[3′,2′:4,5]pyrrolo[2,3-d]azepin-2-yl)-4-(6-(trifluoromethyl)pyridazin-3-yl)pyridin-2(1H)-one hydrochloride] are 300 to 305 °C (dec.) and 0.235 µM.
Regarding `Cl.Cn1c2c(c3ccc(-n4ccc(-c5ccc(C(F)(F)F)cn5)cc4=O)nc31)CCNCC2` [Example 80, 1-(10-Methyl-5,6,7,8,9,10-hexahydropyrido[3′,2′:4,5]pyrrolo[2,3-d]azepin-2-yl)-4-(5-(trifluoromethyl)pyridin-2-yl)pyridin-2(1H)-one hydrochloride], the melting point was 310 to 314 °C (dec.). Further, the Ki at human MCH-1 receptor was determined as 0.069 µM.
For `Cl.Cn1c2c(c3ccc(-n4ccc(OCc5ccc(F)cn5)cc4=O)nc31)CCNCC2` [Example 81, 4-((5-Fluoropyridin-2-yl)methoxy)-1-(10-methyl-5,6,7,8,9,10-hexahydropyrido[3′,2′:4,5]pyrrolo[2,3-d]azepin-2-yl)pyridin-2(1H)-one hydrochloride] the same measures were 238 to 240 °C and 0.033 µM.
For `Cl.Cn1c2c(c3ccc(-n4ncc(OCc5ccc(F)cn5)cc4=O)nc31)CCNCC2` [Example 82, 5-((5-Fluoropyridin-2-yl)methoxy)-2-(10-methyl-5,6,7,8,9,10-hexahydropyrido[3′,2′:4,5]pyrrolo[2,3-d]azepin-2-yl)pyridazin-3(2H)-one hydrochloride] the same measures were 226 to 230 °C (dec.) and 0.053 µM.
As for `Cl.Cn1c2c(c3ccc(-n4ccc(-c5ccc(C(F)(F)F)nc5)cc4=O)nc31)CNCCC2` [Example 89, 1-(10-Methyl-5,6,7,8,9,10-hexahydropyrido[3′,2′:4,5]pyrrolo[3,2-c]azepin-2-yl)-4-(6-(trifluoromethyl)pyridin-3-yl)pyridin-2(1H)-one hydrochloride], the melting point lay in the range of 308 to 312 °C. Further, the Ki on human MCH-1 receptor was found to be 0.015 µM.
For `Cl.Cn1c2c(c3ccc(-n4ccc(OCc5ccccc5)cc4=O)nc31)CNCCC2` [Example 90, 4-(Benzyloxy)-1-(10-methyl-5,6,7,8,9,10-hexahydropyrido[3′,2′:4,5]pyrrolo[3,2-c]azepin-2-yl)pyridin-2(1H)-one hydrochloride] the same measures were 328 to 332 °C and 0.0064 µM.
`Cl.Cn1c2c(c3ccc(-n4ccc(OCc5ncc(F)cc5F)cc4=O)cc31)CCNCC2` [Example 102, 4-((3,5-Difluoropyridin-2-yl)methoxy)-1-(6-methyl-1,2,3,4,5,6-hexahydroazepino[4,5-b]indol-8-yl)pyridin-2(1H)-one hydrochloride] registered a melting point of 215 to 225 °C. The Ki at human MCH-1 receptor came out at 0.022 µM.
On the same counts, the results for `Cl.Cn1c2c(c3ccc(-n4ccc(OCc5ncc(F)cc5F)cc4=O)cc31)CNCCC2` [Example 106, 4-((3,5-Difluoropyridin-2-yl)methoxy)-1-(6-methyl-1,2,3,4,5,6-hexahydroazepino[4,3-b]indol-8-yl)pyridin-2(1H)-one hydrochloride] are 180 to 190 °C and 0.018 µM.
